Source: patent US20230270703A1, “COMPOUNDS AND METHODS FOR THE TREATMENT OF EYE DISORDERS” (OccuRx Pty Ltd, priority 2020, published 2023)
Like-named read-outs stand apart in the source and are kept apart here.

Columns and labels:
[1] = Animal pharmacokinetic data, 91 days of dosing in rats; format: in vivo
[2] = Human clinical plasma pharmacokinetics, single or multiple doses of 200 mg; format: in vivo, humans; details: for Dose normalised AUC0-inf / Dose normalised Cmax / AUC(0-inf) / Cmax / Tmax / half-life: 200 mg oral; for AUC(0-inf) / Cmax / Tmax / half-life: human, plasma, po; for half-life: read-out: T ½ (converted)
Procedure: Clinical pharmacokinetic studies were also conducted on volunteers who received a single dose or multiple doses of 200 mg (E)-2-[[3-Methoxy-4-(difluoromethoxy)phenyl-1-oxo-2-propenyl]amino] benzoic acid administered as powder-in-capsule. Blood was collected 10 minutes prior to dosing, and at 15 and 30 minutes and 1, 2, 3, 4, 6, 8, 12, 24, 36, 48, 72 and 96 hours post dose into K2EDTA tubes. Samples were spun in a refrigerated centrifuge within 1 hour of collection, at 2000 g for 10 minutes. Plasma was collected and frozen on dry ice.
(§1) The concentration of (E)-2-[[3-Methoxy-4-(difluoromethoxy)phenyl-1-oxo-2-propenyl]amino]benzoic acid in plasma was determined using a validated LC-MS/MS method. A non-compartmental analysis was performed using WinNonLin software. Nominal doses and sampling times were used. Concentration values below the lower limit of quantitation were treated as zero for pharmacokinetic analysis.

[3] = Rat plasma pharmacokinetic study, single daily dose for 28 days, plasma on first day of dosing; format: in vivo, Sprague-Dawley rats; details: Sprague-Dawley, read-out: elimination half-life (converted)
Procedure: Sprague-Dawley rats were administered a single daily dose of (E)-2-[[3-methoxy-4-(difluoromethoxy)phenyl-1-oxo-2-propenyl]amino]benzoic at 25, 50 or 100 mg/kg for 28 consecutive days. Plasma was collected up to 24 hours post-dose on the first day of dosing.

[4] = Rat plasma and retina pharmacokinetics, single oral dose 50 mg/kg; format: in vivo, Sprague Dawley rats; details: single oral dose 50 mg/kg
Procedure: Male Sprague Dawley rats were administered a single dose of 50 mg/kg of (E)-2-[[3-Methoxy-4-(difluoromethoxy)phenyl-1-oxo-2-propenyl]amino]benzoic acid by oral gavage. The oral formulation was prepared in 1% carboxymethyl cellulose. Samples were collected from 3 animals/timepoint at 1, 2, 4, 8 and 24 hours after dosing. Whole blood was collected from the tail vein in conscious rats into polypropylene tubes containing heparin. Blood samples were centrifuged immediately (3000 rpm, for 10 minutes) and supernatant plasma removed and snap frozen in liquid N2. After blood collection, animals were euthanised with pentobarbitone (120 mg/kg), eyes were enucleated and retina were weighed, collected and snap frozen in liquid nitrogen. Blood was centrifuged at 3000 rpm for 10 mins at 4° C. and plasma was collected and snap frozen in liquid N2. Plasma and retinal concentrations of (E)-2-[[3-Methoxy-4-(difluoromethoxy)phenyl-1-oxo-2-propenyl]amino]benzoic acid were determined using a validated LC-MS/MS method. Cmax and Tmax was estimated using GraphPad prism software.

[5] = Human Phase I clinical study, steady state exposure at 50 mg after 14 days dosing; format: in vivo, humans; details: plasma, oral, Data from Phase I (after 14 days dosing)
Procedure: The corresponding data from the human Phase I clinical study is also included below, showing a much greater than predicted Cmax and AUC0-24 at 50 mg dosing.

[6] = Human Phase I clinical trial plasma pharmacokinetics, single 50 mg dose; format: in vivo, humans; details: 50 mg single oral dose
Procedure: Six healthy male volunteers in a Phase I clinical trial received a single dose of 50 mg (E)-2-[[3-Methoxy-4-(difluoromethoxy)phenyl-1-oxo-2-propenyl]amino] benzoic acid administered as powder-in-capsule. Blood was collected 10 minutes prior to dosing, and at 15 and 30 minutes and 1, 2, 3, 4, 6, 8, 12, 24, 36, 48, 72 and 96 hours post dose into K2EDTA tubes. Samples were spun in a refrigerated centrifuge within 1 hour of collection, at 2000 g for 10 minutes. Plasma was collected and frozen on dry ice.
as §1

[7] = Rabbit plasma and ocular tissue steady state pharmacokinetics, 8 daily oral doses; format: in vivo, Dutch Belted pigmented rabbits; details: for Tmax / Cmax: male, Dutch Belted
Procedure: Male Dutch Belted pigmented rabbits were administered a once daily dose of 50 or 100 mg/kg of (E)-2-[[3-Methoxy-4-(difluoromethoxy)phenyl-1-oxo-2-propenyl]amino]benzoic acid by oral gavage for 8 days. The oral formulation was prepared in 1% carboxymethyl cellulose. Blood was collected into tubes containing K2EDTA from two animals/dose/time point at 0 (predose), 1, 2, 4, 8, and 24 hours after the last dose on Study Day 8. Immediately following blood collection, animals were sacrificed via overdose of sodium pentobarbital. Blood samples were placed in a chilled cryorack until centrifuged to obtain plasma, which was stored at approximately -70° C. At the time of sacrifice for all animals, both eyes were enucleated, the aqueous humor was collected and discarded, and each eye was then flash frozen in liquid nitrogen for 15 to 20 seconds. The enucleated eye was placed on dry ice or stored at approximately -70° C. for at least two hours. Within approximately 5 days, the choroid-RPE, iris-ciliary body, retina and vitreous humor were collected from the right and left eye. The ocular tissues were rinsed with saline and blotted dry, as appropriate, weighed, and placed on dry ice. Sample analysis was performed using a qualified LC-MS/MS method to ascertain the concentration of (E)-2-[[3-Methoxy-4-(difluoromethoxy)phenyl-1-oxo-2-propenyl]amino]benzoic acid in each tissue matrix. Non-compartmental analysis (Gibaldi and Perrier, 1982) was applied to the individual and mean concentration data. Nominal doses and sampling times were used. Concentration values below the lower limit of quantitation were treated as zero for pharmacokinetic analysis. The plasma and ocular steady state non-compartmental pharmacokinetic parameters for repeated oral administration of 50 or 100 mg/kg on Day 8 are summarized in Table 2 and further below.

[8] = Dog plasma pharmacokinetic study, single daily dose for 28 days, plasma on first day of dosing; format: in vivo, Beagle dogs; details: beagle, read-out: elimination half-life (converted)
Procedure: Beagle dogs were administered a single daily dose of (E)-2-[[3-Methoxy-4-(difluoromethoxy)phenyl-1-oxo-2-propenyl]amino]benzoic at 25, 50 or 100 mg/kg for 28 consecutive days. Plasma was collected up to 24 hours post-dose on the first day of dosing.

[9] = Animal pharmacokinetic data, 91 days of dosing in dogs; format: in vivo
[10] = human plasma, cited from earlier work
[11] = Tranilast plasma pharmacokinetics after 200 mg oral dosage (data from Charng et al.); format: in vivo, humans; details: human plasma
Procedure: Pharmacokinetic data for a comparator compound Tranilast following 200 mg oral dosage are also shown. See, e.g., Charng M, Ding P Y, Chuang M, et al. Pharmacokinetic Properties of Tranilast in Chinese People. Journal of Food and Drug Analysis, Vol. 10, No. 3, 2002, Pages 135-138. Tranilast is approved for use in an amount of 3 × 100 mg/day.

[12] = Tranilast 200 mg, Day 1, single dose

Compound: COc1cc(/C=C/C(=O)Nc2ccccc2C(=O)O)ccc1OC(F)F [(E)-2-[[3-methoxy-4-(difluoromethoxy)phenyl-1-oxo-2-propenyl]amino]benzoic acid]
- accumulation with multiple dosing [1]: did not show accumulation
- Dose normalised AUC0-inf ([2]; Day 1, single dose): 1951 ng·h/mL
- Dose normalised Cmax ([2]; Day 1, single dose): 164 ng/mL
- Dose normalised AUC0-inf ([2]; Day 14, multiple dose): 18,874 ng·h/mL
- Dose normalised Cmax ([2]; Day 14, multiple dose): 338 ng/mL
- increase in Cmax after 14 days of dosing compared with a single dose ([2]; 200 mg, steady state vs single dose): two-fold increase
- AUC(0-inf) ([2]; 200 mg, Day 1, single dose): 390 µg·h/mL
- Cmax ([2]; 200 mg, Day 1, single dose): 32800 ng/mL
- Tmax ([2]; 200 mg, Day 1, single dose): 3 h
- half-life ([2]; 200 mg, Day 1, single dose): 9.6 h
- AUC(0-inf) ([2]; 200 mg, Day 14, multiple dose): 3770 µg·h/mL
- Cmax ([2]; 200 mg, Day 14, multiple dose): 67600 ng/mL
- Tmax ([2]; 200 mg, Day 14, multiple dose): 2.5 h
- half-life ([2]; 200 mg, Day 14, multiple dose): 23.2 h
- half-life ([3]; 25 mg/kg): 12.9 h
- half-life ([3]; 50 mg/kg): 13 h
- half-life ([3]; 100 mg/kg): 11 h
- Cmax ([4]; male, Sprague Dawley, rat retina, read-out: estimated Cmax in retina): 792 ng/g
- estimated maximum concentration in plasma ([4]; rat plasma): 35,134 ng/mL
- time of estimated maximum concentration in plasma ([4]; rat plasma): 1 h
- time of estimated maximal exposure in retina ([4]; rat retina): 4 h
- detection in the plasma and retina at 24-hours post-dose ([4]; rat): still detected
- Cmax [5]: 6560 ng/mL
- AUC(0-t) ([5]; read-out: AUC0-24 hrs, ss): 74 µg·h/mL
- Dose normalised AUC0-inf [6]: 2,256 ng·h/mL
- Dose normalised Cmax [6]: 175 ng/mL
- AUC(0-inf) ([6]; male): 113 µg·h/mL
- Tmax ([6]; male): 2.5 h
- Cmax ([6]; male, powder-in-capsule): 8740 ng/mL
- half-life ([6]; male, read-out: T ½ (converted)): 24 h
- Tmax ([7]; oral, rabbit ocular tissues, 50 and 100 mg/kg, read-out: Tmax for all analyzed ocular tissues): 1 to 4 h
- Cmax ([7]; rabbit Choroid-RPE, 50 mg/kg/day oral, Day 8): 3320 ng/g
- Tmax ([7]; rabbit Choroid-RPE, 50 mg/kg/day oral, Day 8, read-out: Tmax): 1 h
- Cmax ([7]; rabbit Choroid-RPE, 100 mg/kg/day oral, Day 8): 12300 ng/g
- Tmax ([7]; rabbit Choroid-RPE, 100 mg/kg/day oral, Day 8, read-out: Tmax): 2 h
- Cmax ([7]; rabbit Iris Ciliary Body, 50 mg/kg/day oral, Day 8): 2510 ng/g
- Tmax ([7]; rabbit Iris Ciliary Body, 50 mg/kg/day oral, Day 8, read-out: Tmax): 1 h
- Cmax ([7]; rabbit Iris Ciliary Body, 100 mg/kg/day oral, Day 8): 8620 ng/g
- Tmax ([7]; rabbit Iris Ciliary Body, 100 mg/kg/day oral, Day 8, read-out: Tmax): 2 h
- Cmax ([7]; rabbit Plasma, 50 mg/kg/day oral, Day 8): 15200 ng/mL
- Tmax ([7]; rabbit Plasma, 50 mg/kg/day oral, Day 8, read-out: Tmax): 1 h
- Cmax ([7]; rabbit Plasma, 100 mg/kg/day oral, Day 8): 42000 ng/mL
- Tmax ([7]; rabbit Plasma, 100 mg/kg/day oral, Day 8, read-out: Tmax): 2 h
- Cmax ([7]; rabbit Retina, 50 mg/kg/day oral, Day 8): 623 ng/g
- Tmax ([7]; rabbit Retina, 50 mg/kg/day oral, Day 8, read-out: Tmax): 1 h
- Cmax ([7]; rabbit Retina, 100 mg/kg/day oral, Day 8): 2370 ng/g
- Tmax ([7]; rabbit Retina, 100 mg/kg/day oral, Day 8, read-out: Tmax): 4 h
- Cmax ([7]; rabbit Vitreous Humour, 50 mg/kg/day oral, Day 8): 3.3 ng/mL
- Tmax ([7]; rabbit Vitreous Humour, 50 mg/kg/day oral, Day 8, read-out: Tmax): 1 h
- Cmax ([7]; rabbit Vitreous Humour, 100 mg/kg/day oral, Day 8): 11.5 ng/mL
- Tmax ([7]; rabbit Vitreous Humour, 100 mg/kg/day oral, Day 8, read-out: Tmax): 4 h
- detection in plasma or ocular tissue by 24 hours-post dose ([7]; rabbits, either dose (50 or 100 mg/kg)): could not be detected
- half-life ([8]; 25 mg/kg): 4.3 h
- half-life ([8]; 50 mg/kg): 4.9 h
- half-life ([8]; 100 mg/kg): 4.2 h
- accumulation with multiple dosing [9]: did not show accumulation

Compound: COc1ccc(/C=C/C(=O)Nc2ccccc2C(=O)O)cc1OC [Tranilast]
- AUC(0-inf) ([10]; Tranilast 200 mg oral): 412,000 ng·h/mL
- Cmax ([10]; Tranilast 200 mg oral): 42,000 ng/mL
- T ½ ([10]; Tranilast 200 mg oral): 7.5 h
- Tmax ([10]; Tranilast 200 mg oral): 2.8 h
- AUC(0-inf) [10, 12]: 412,000 ng-h/mL
- Cmax [10, 12]: 42,000 ng/mL
- T ½ [10, 12]: 7.5 h
- Tmax [10, 12]: 2.8 h
- Dose normalised AUC0-inf ([11]; Tranilast 200 mg oral): 2,060 ng·h/mL
- Dose normalised Cmax ([11]; Tranilast 200 mg oral): 210 ng/mL
- Dose normalised AUC0-inf [11, 12]: 2,060 ng·h/mL
- Dose normalised Cmax [11, 12]: 210 ng/mL
